From ChEMBL document CHEMBL1148466, “Self-association of okadaic acid upon complexation with potassium ion” (J Med Chem, 2004)

How the values were obtained:
[1] = molecular target: Serine/threonine-protein phosphatase PP1-gamma catalytic subunit (Homo sapiens, UniProt P36873); experiment: Inhibitory activity against serine/threonine protein phosphatase 1(PP1)
[2] = Inhibitory activity against serine/threonine protein phosphatase 2 (PP2A)

Chain of Serine/threonine-protein phosphatase PP1-gamma catalytic subunit (P36873 whole entry): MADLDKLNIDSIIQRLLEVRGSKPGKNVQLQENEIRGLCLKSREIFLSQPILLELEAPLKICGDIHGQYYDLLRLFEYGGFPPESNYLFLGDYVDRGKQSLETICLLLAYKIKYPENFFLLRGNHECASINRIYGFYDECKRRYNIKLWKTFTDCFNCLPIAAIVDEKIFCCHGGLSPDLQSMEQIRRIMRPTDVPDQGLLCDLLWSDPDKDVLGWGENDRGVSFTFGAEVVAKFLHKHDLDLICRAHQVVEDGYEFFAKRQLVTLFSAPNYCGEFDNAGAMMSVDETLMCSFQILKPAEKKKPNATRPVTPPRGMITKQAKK

C=C1[C@@H](O)[C@@H]2O[C@]3(CC[C@H](/C=C/[C@@H](C)[C@@H]4CC(C)=C[C@@]5(O[C@H](C[C@@](C)(O)C(=O)O)CC[C@H]5O)O4)O3)CC[C@H]2O[C@@H]1[C@@H](O)C[C@H](C)[C@H]1O[C@@]2(CCCCO2)CC[C@H]1C [OKADAIC ACID]
IC50 [1]: 20 nM | IC50 [2]: 0.2 nM
